l = locked nucleic acid (LNA); d = 2'-deoxy (DNA)
Tests used:
[1] = test system: MSI2 transcripts; assay: MSI2 relative expression (transcripts) by RT-qPCR in muscle cells; format: cell-based, H. sapiens
Method: (§1) TDMs were cultured as previously described^1. After 4 days in differentiation medium (MDM), cells were transfected with a combination of two siRNAs (SEQ ID NO: 40 and 43) targeting MSI2 transcripts (final concentration 100 nM) using Lipofectamine RNAiMAX transfection reagent (Invitrogen, Madrid, Spain)) following the manufacturer's recommendations. After 48 h, the medium containing the siRNAs was replaced by fresh MDM. 24 h later, cells were collected. As a control, the same protocol was performed using 100 nM of a siRNA with a scrambled sequence (Cat #4390843 for negative control). Gapmers against MSI2 and agomiR-107 were transfected following the same protocol using two different concentrations, 30 and 150 nM in the case of Gapmers and 100 and 300 nM in the case of agomiR-107. To treat cells with the small molecule Ro-08-2750 (Tocris Cat. No. 2272, Bristol, UK)), cells were cultured as before. Briefly, after 96 h in MDM, the medium was supplemented with Ro-08-2750 at a final concentration of 10 μM (0.8% DMSO) or with the vehicle, DMSO 0.8%, for 48 h. Then cells were collected for further analyses.
(§2) All the procedures were performed as previously described^1.

[2] = test system: miR-7; assay: miR-7 quantification by RT-qPCR in MD1 cells; format: cell-based, human; settings: MD1 cells, * significant
Method: as §1, §2

[3] = test system: TGFBR1; assay: TGFBR1 expression by RT-qPCR in MD1 muscle cells; format: cell-based, H. sapiens; settings: DM1 TDMs; 150 nM
Method: as §1, §2

[4] = test system: MD1 TDMs; assay: Desmin immunostaining: myogenic fusion index and myotube diameter; format: cell-based, human; settings: MD1 myotubes; 30 nM
Method: as §1
Desmin immunostaining and fusion index and diameter determination were performed as previously described^3. For MSI2 immunodetection, 3.5×10^4 fibroblasts/well were seeded in 24 well plates. After 7 days of differentiation into myotubes, cells were fixed with 4% paraformaldehyde (PFA) for 15 min. After 3 washes with PBS-T (0.1%×-TritonX-100 in PBS 1×) cells were blocked (PBS-T, 1% BSA, 5% normal goat serum) for 1 h and incubated with rabbit anti-MSI2 antibody (1:100, Abcam, EP1305Y, Cambridge, UK) in blocking buffer for 48 h at 4° C. After three washes with PBS-T, cells were incubated for 1 h with goat anti-rabbit-FITC IgG (1:200, Sigma-Aldrich, St. Louis, Missouri) in blocking buffer. Finally, cells were washed thrice with PBS 1× and were counterstained and mounted with VECTASHIELD® mounting medium containing DAPI (Vector Laboratories, London, UK) to detect the nuclei. Images were taken in a confocal microscope LSM800 (Zeiss) at 400× magnification.

[5] = test system: AKT; assay: AKT pathway activation: phospho (Ser473)-AKT-to-total-AKT ratio; format: cell-based, human; settings: DM1 TDMs; 150 nM
Method: (§3) FIG. 10. Inhibition of MSI2 expression in DM1 TDMs restores impaired autophagic markers. (A) qRT-PCR quantification of the relative expression of the indicated genes involved in different autophagy pathway steps in DM1 and control (green dashed lines) myotubes. Statistical analyses were performed comparing DM1 versus controls. (B) Analyses of the expression of genes quantified in (A) in DM1 myotubes treated with ASOs targeting MSI2 transcripts. All comparisons for the statistical analyses were performed using their corresponding scrambled control (dashed lines). […] Quantification and representative western blots of (C) ATG4A, (D) ATG7, (E) AKT-P/AKT total protein levels, and (F) LC3-II/LC3-I ratio in DM1 TDMs treated with MSI2 targeting or scrambled ASOs at the indicated concentrations. Green dashed lines indicate protein expression levels in control myotubes. β-actin was used as an endogenous control to normalize protein levels (n=3). The bar graphs show mean #SEM. * p<0.05, ** p<0.01, *** p<0.001, and **** p<0.0001 according to Student's t test.
Protein extraction, quantification and immunodetection were performed as previously described^1,3. Specifically, MSI2 detections were performed by incubating membranes overnight with a rabbit anti-MSI2 antibody (1:1000, Abcam, EP1305Y, Cambridge, UK). […] Quantification was performed using ImageJ software (NIH).

[6] = test system: LC3; assay: LC3 immunostaining and LC3 puncta quantification; format: cell-based, human; settings: DM1 TDMs; compared to scrambled ASO at the same concentration
Method: For LC3B immunodetection, cells were differentiated in MDM for 7 days (3×10^5 cells/well in 24-well plates). After 48 h of gapmer treatment, cells were fixed with 4% PFA in PBS for 15 min at room temperature. After fixation, cells were permeabilized with methanol 100% for 15 min at −20° C. and blocked with blocking buffer (PBS 1×, 0.5% BSA, 1% goat serum) for 1 h at room temperature. Cells were incubated overnight (O/N) with rabbit anti-LC3B (1:200, ab51520; Abcam, Cambridge, UK) diluted in blocking buffer. Then, samples were incubated with goat anti-rabbit IgG (H+L) Alexa Fluor Plus 594 (1:200; Invitrogen, Carlsbad, CA, USA) for 2 h. Between antibodies, cells were washed three times with PBS 1×. Finally, cells were washed three times with PBS and mounted in Vectashield (Vector Laboratories, London, UK) with […] DAPI.
Image analyses of LC3-stained myotubes were performed using the Ifdotmeter software following the authors' recommendations (see Rodríguez-Arribas, M., et al. (2016). IFDOTMETER: A New Software Application for Automated Immunofluorescence Analysis. J. Lab. Autom. 21, 246-259). Briefly, the quantification of the number of LC3 dots or LC3 puncta was performed with 15-20 images per condition. Total LC3 dots per image were normalized relative to the total area corresponding to all myotubes observed in each image. Myotube area was measured by using ImageJ software. Data were expressed as the number of LC3 dots/mm2.

[7] = test system: ATG3, ATG4A, ATG5, ATG7, and mTOR; assay: qRT-PCR of autophagy pathway genes in DM1 TDMs; format: cell-based, human; settings: highest concentration (150 nM)
Method: as §3, §2

[8] = test system: Human CNT myotubes
Method: (A) Cell growth inhibition assay by MTS method. Human CNT myotubes were transfected with increasing concentrations of ASO1, 2 and 3 (n=4). […] Vertical dashed lines indicate used concentrations in the following experiments: 30 and 150 nM.
Non-DM control (Ctrl) cells (CNT) were aliquoted in 96-well plates with 1.0×10^5 cells per well. After 24 h, cells were transfected as described with different ASOs (concentrations ranging from 1 nM to 1 μM) or treated with Ro-08-2750 (Tocris Bioscience, Bristol, UK) at concentrations ranging from 0.0195 up to 80 μM (in 1:2 serial dilutions). Cell viability was measured as previously described^3.

## ASO1: gapmer antisense oligonucleotide against MSI2 transcript, SEQ ID NO: 76 (38), 5′ +T+G+A*C*T*T*C*T*T*T*C*G*G+C+T+G 3′, LNA ends, phosphorothioate linkages (antisense TGACTTCTTTCGGCTG; sugars from the 5' end l3 d10 l3, backbone and methylation of C not given here; further chemistry not fully specified)
[1]; DM1 TDMs, 30 and 150 nM
  MSI2 relative expression upon transfection: significant reduction
[1]; MD1-derived myoblasts, 150 nM
  reduction of MSI2 transcript: 27%
[2]; ASO 30 nM, Ro 08-2750 10 μM, siRNA 100 nM
  FC miR-7 expression respect to MD1, Low concentration: 1.49 fold
[2]; ASO 150 nM
  FC miR-7 expression respect to MD1, High concentration: 1.72* fold
[3]
  TGFBR1 expression: behaved the opposite
[4]
  fusion capacity (fusion index and diameter): significant rescue
[5]
  AKT-P/AKT ratio: robust increase
[6]
  LC3 dots per unit of area: significant decrease
[7]
  ATG5 expression: significantly reduced
[8]
  TC10: 31.2 nM
